From patent US20030139424A1, “Use” (priority 2001, published 2003)

System: ob/ob mice
Test: Effect on food intake (and total motor activity) by single dose subcutaneous administration in ob/ob mice, operant test cage system (Eater meter)
Assay type: in vivo, mouse
Conditions: male ob/ob mice
From the text: Effect on Food Intake of N,N-Dimethyl 2-[1-(benzenesulphonyl)-5-methoxy-1H-indol-3-yl]ethylamine by single dose subcutaneous administration in ob/ob mice.
Obese (ob/ob) mouse is selected as the primary animal model for screening as this mutant mouse consumes high amounts of food resulting in a high signal to noise ratio. To further substantiate and compare efficacy data, the effect of the compounds on food consumption is also studied in wild type (C57BL/6J) mice. The amount of food consumed during 15 hours of infusion of compounds is recorded.
Male mice (obese C57BL/6JBom-Lep^ob and lean wild-type C57B1/6JBom; Bomholtsgaard, Denmark) 8-9 weeks with an average body weight of 50 g (obese) and 25 g (lean) are used in all the studies. The animals are housed singly in cages at 23±1° C., 40-60% humidity and have free access to water and standard laboratory chow. The 12/12-h light/dark cycle is set to lights off at 5 p.m. The animals are conditioned for at least one week before start of study.
The test compound, N,N-Dimethyl 2-[1-(benzenesulphonyl)-5-methoxy-1H-indol-3-yl]ethylamine, was dissolved in 25% Polyetylenglykol 400 (PEG 400) plus 0.1% Tween 80. +sodium actetate till pH 5. Doses of […] were used. […]
The animals were divided into four groups containing 8 animals each and treated with vehicle plus three dosages of the test compound. Food consumption, total motor activity and water consumption were measured continuously for 22 h following start of recording in a computer-assisted operant test cage system (Eater meter). […] On the fourth day the animals were treated with test compound just before dark onset (5 pm) and data recorded cumulatively for 3 h, 6 h, 12 h and 21 h. Water consumption during 22 h was also measured by weighing the days before and after treatment.
Animals were randomized according to body weight and treatment assigned in a cage- and room-wise order. […] Spillage at other time points were calculated proportionally to that of the 22 h spillage. The values are expressed as mean±SEM both as the change in gram from basal level and as percent of basal level. […]

## COc1ccc2c(c1)c(CCN(C)C)cn2S(=O)(=O)c1ccccc1 [N,N-Dimethyl 2-[1-(benzenesulphonyl)-5-methoxy-1H-indol-3-yl]ethylamine]
Single sc dose 10, 30, 50 mg salt/kg, at 6 h and 12 h following administration, significant, FIG. 1
  decrease of food intake: 15-20%
Single sc dose 10, 30, 50 mg salt/kg, all doses overlapped
  dose dependence of food intake effect: not dose-dependent
Single sc dose, borderline statistical significance of 15-20% inhibition
  approximate minimum effective dose for food intake: ~10 mg/kg
